Source: ChEMBL document CHEMBL3507680, “University of Dundee, Gates Library screen for HepG2 cell viability”

Assay: Human HepG2 cell viability assay in 384 well format
Type: toxicity, cell-based
Design: dose 125 nL, time 70.5 hour; concentration not given beside the values
Conditions: HepG2 cells, read-out: Inhibition

SMILES | cytotoxicity at 70.5 h [%]
Cn1c(=O)c2sccc2n(Cc2ccccc2)c1=O | 2.6
O=C(c1ccnnc1)N1C[C@@H]2CN(c3ncccn3)C[C@@H]2C1 | 7.41
CN(C)c1ncnc2c1CCN(c1ccccc1)CC2 | 13.6
Cn1cnc(C(=O)N2CC3(CCN(S(=O)(=O)c4ccccc4)C3)C2)c1 | -7.62
CS(=O)(=O)N1CCC2(CCCN(c3ncc(F)cn3)C2)C1 (stereo not drawn) | -7.4
CCS(=O)(=O)N1CCCC2(CCCN2C(=O)c2cn(C)cn2)C1 (stereo not drawn) | -8.17
O=C(c1ccnnc1)N1CC2(CCN(c3ncccn3)C2)C1 | -5.07
COCC(=O)N1CC2(CCN(c3ccccc3)C2)C1 | -5.97
O=C(c1ccoc1)N1C[C@@H]2CN(c3ncccn3)C[C@@H]2C1 | -4.89
COc1ncnc2c1CCN(c1cccc(F)c1)CC2 | -6.07
Cc1cc(F)ccc1NC(=O)Cn1cc(C(=O)O)ccc1=O | -18.2
COc1cccc(C2C3=C(COC3=O)Nc3[nH]nc(C)c32)c1O (stereo not drawn) | -3.51
CC(C)NC(=O)c1cc2c([nH]c1=O)CC(c1cccs1)CC2=O (stereo not drawn) | 6.88
COc1cc(CO)c(OC)c2c1OCO2 | -8.39
Cc1ccc(N2Cc3nc(=O)[nH]n3C2=O)cc1 | 6.49
O=C1N(c2cccc(Cl)c2)Cc2nc(=O)[nH]n21 | -3.18
COC(=O)CNC(=O)CSCc1nc(O)c2cc(C)sc2n1 | 4.84
COc1cc(OC)cc(C2SCC(=O)Nc3ccsc32)c1 (stereo not drawn) | -4.19
CC(C)c1cc2c(O)nc(CSCC(=O)NCc3ccncc3)nc2s1 | -12.9
O=C1CC(c2ccc(C(=O)O)cc2)c2ncn(-c3ccccc3F)c2N1 (stereo not drawn) | -11.1
O=C1CC(c2ccc(C(=O)O)cc2)c2ncn(-c3ccc(F)cc3)c2N1 (stereo not drawn) | -4.89

SMILES | cytotoxicity at 70.5 h [%]
COCCNC(=O)CSCc1nc(O)c2cc(C(C)C)sc2n1 | -8.44
COc1ccc(N2Cc3nc(=O)[nH]n3C2=O)cc1 | 6.34
O=C1CC(c2ccc(C(=O)O)cc2)c2ncn(-c3cccc(Cl)c3)c2N1 (stereo not drawn) | -9.82
CC1CCc2nc(O)c(C(=O)NCCCN3CCN(C)CC3)cc2C1 (stereo not drawn) | -7.22
Cc1csc(CCNC(=O)c2cc3c(nc2O)CCC(C)C3)n1 (stereo not drawn) | -8.45
COC(=O)C(C)NC(=O)CSCc1nc(O)c2cc(C(C)C)sc2n1 (stereo not drawn) | 6.75
COc1cc(C2SCC(=O)Nc3ccsc32)cc(OC)c1OC (stereo not drawn) | -14.5
O=c1c2cnc(N3CCCC3)nc2ccn1-c1cccc(C(F)(F)F)c1 | -5.84
Cc1ccc(Sc2ccc(N3CCC(C(=O)O)CC3)nn2)cc1 | 33.4
Cc1c(C)n(CC(O)CN2CCC(C)CC2)c2c(Cl)cccc12 (stereo not drawn) | 14.8
Cc1c(C)n(CC(O)CN2CCC(O)CC2)c2c(Cl)cccc12 (stereo not drawn) | 16.5
Cc1cc(C)c(C#N)c(N2CCC(Cc3ccccc3)CC2)n1 | -2.18
COc1ncc(C(=O)NCc2ccccc2)cn1 | 0.247
CCN(CC)C(=O)Cn1c(C)cc2nc(SC)n(CC(C)C)c(=O)c21 | -6.31
CSc1nc2cc(C)n(CC(=O)NC(C)C)c2c(=O)n1CC(C)C | -4.16
CSc1nc2cc(C)n(CC(=O)N3CCCC3)c2c(=O)n1CC(C)C | -5.31
CCOC(=O)CSc1ccc(-c2nc(C)no2)cn1 | 1.96
Cc1noc(C2(NC(=O)c3cccnc3O)CCCCC2)n1 | 2.75
COc1cccc(Cn2c(=O)n(C)c(=O)c3sccc32)c1 | 0.75
O=C(O)C1CCN(c2ccc(Sc3ccc(Br)cc3)nn2)CC1 | 26.1
O=c1[nH]nc2nc(N3CCOCC3)ccn12 | -1

SMILES | cytotoxicity at 70.5 h [%]
Cc1ccc(Sc2ccc(N3CCCC(C(=O)O)C3)nn2)cc1 (stereo not drawn) | 0.439
O=c1[nH]nc2nc(N3CCSCC3)ccn12 | 0.517
Oc1nnc(-c2ccccc2)c2sc(N3CCCCC3)nc12 | 0.482
CCOC(=O)c1cn(CC(O)c2ccccc2OC)nn1 (stereo not drawn) | 7.58
COc1cc(Cl)c(C)cc1-n1nnc(C(=O)O)c1-c1ccncc1 | 28.1
CC(C)=CCC/C(C)=C\CNCc1ccco1 | 2.6
O=C(O)c1ccc2[nH]cc(CN3CCOCC3)c2c1 | 2.68
CC(C)n1[nH]c(=O)c2c1NC(=O)CC2C1CCCCC1 (stereo not drawn) | 4.13
O=C1COc2ccc(S(=O)(=O)NC3CC3)c3c2N1CCC3 | 7.26
COCc1nc2nc(O)c3c(n2n1)NC(=O)CC3c1ccc(SC)cc1 (stereo not drawn) | 1.29
CCc1nc(C#N)c(N2CCC(c3nc(-c4ccccc4)no3)CC2)o1 | 0.267
Cc1noc(C2CCN(c3oc(C)nc3C#N)CC2)n1 | 2.04
CC(C)CN1C(=O)CC(N2CCN(c3ccc(F)cc3)CC2)C1=O (stereo not drawn) | 13.6
COCCCN1C(=O)CC(N2CCN(c3ccc(F)cc3)CC2)C1=O (stereo not drawn) | -1.4
COCCNC(=O)c1sccc1N(C)S(=O)(=O)c1ccc(Cl)cc1 | -22.2
O=c1[nH]c2nc(N3CCOCC3)ncc2c(=O)n1-c1cccc(F)c1 | -2.92
O=c1[nH]c2nc(N3CCSCC3)ncc2c(=O)n1-c1ccc(F)cc1 | -16.9
CCN(c1ccc(C(=O)NCCN2CCOCC2)cc1)S(=O)(=O)CC | -25.1
O=C(c1ccccc1-n1cnnn1)N1CCC2(CC1)OCCO2 | -1.41
CCCn1[nH]c(CNc2ccccc2)nc1=O | -2.36
O=C(Nc1ccc(Cl)cn1)c1nn(C2CCS(=O)(=O)C2)c2c1CCCC2 (stereo not drawn) | -23

SMILES | cytotoxicity at 70.5 h [%]
COc1ccc(OC)c(C2SCC(=O)Nc3n[nH]cc32)c1 (stereo not drawn) | -9.28
O=C(Nc1ccc(Cl)cc1)c1nn(C2CCS(=O)(=O)C2)c2c1CCCC2 (stereo not drawn) | -19.1
Cc1cc(O)c(OCC(=O)/N=c2\[nH]c(C)cs2)cn1 | -2.18
CC(C)(C)NC(=O)c1nn(C2CCS(=O)(=O)C2)c2c1CCCC2 (stereo not drawn) | -18.7
O=C(c1cc(-n2cnnn2)ccc1Cl)N1CCCCCC1 | -2.04
CC(C)NC(=O)c1ccc2c(c1)nc1n2CCN(Cc2ccco2)C1 | -10.4
CCOC(=O)c1s/c(=N\C(=O)COc2cnc(C)cc2O)[nH]c1C | -19
Cc1ccc(N2N=C(C(=O)NCC3CC3)S(=O)(=O)c3cccnc32)cc1 | -8.14
CCc1c(C(=O)O)nnn1-c1ccc(C)cc1C | -17.4
O=C1c2cnc(N3CCOCC3)nc2CN1c1ccc2c(c1)OCO2 | -5.67
CCn1nccc1CNC(=O)C1CCCC1 | -6.56
Cc1ncsc1C(=O)N1CCc2nnc(C3CCCCN3C)n2CC1 (stereo not drawn) | -2.05
CN(C)c1cc(CC(NC(=O)C2CC2)c2ccccc2)nc(C2CC2)n1 (stereo not drawn) | 16.9
CN(C)CC1(O)CCN(C(=O)Cc2ccc3c(c2)CCC3)C1 (stereo not drawn) | 0.63
COc1cc(CN)c(OC)c2c1OCO2 | -15.1
CC(C)(CO)NCc1ccc(OCc2ccc3c(c2)OCCO3)cc1 | -2.91
c1c2c(nn1CC1CC1)C(CNC1CCOCC1)OCC2 (stereo not drawn) | -11.6
CN1CC2(CCN(C(=O)Cc3ccccn3)CC2)OCC1=O | -5.16
c1c2c(nn1CC1CCOCC1)C(CNC1CCOCC1)OCC2 (stereo not drawn) | 7.06
Cn1cc2c(n1)C(CNC1CCOCC1)OCC2 (stereo not drawn) | -5.41
